# Data published in PubChem BioAssay AID1996.
# Conditions: buffer; pH 7.4; 200.0 µM
row,SMILES,solubility kinetic
1,Cc1c(C)n(Cc2ccccc2)c2ncnc(NCCO)c12,41.2 µg/mL
2,O=[N+]([O-])c1ccc(N2CCN(Cc3cccc([N+](=O)[O-])c3)CC2)cc1,7.3 µg/mL
3,CC1CCN(C(=O)COC(=O)/C=C/c2ccc([N+](=O)[O-])cc2)CC1,5.7 µg/mL
4,CC(=O)c1ccc(S(=O)(=O)Nc2ccc(Cl)c(S(=O)(=O)N3CCCC3)c2)cc1,> 66.4 µg/mL
5,NC(=O)CC[C@H](NC(=O)c1ccc(F)cc1)C(=O)OCC(=O)NCc1ccc2c(c1)OCO2,1.2 µg/mL
6,CN(CC(=O)N1CCCCC1)S(=O)(=O)c1ccc(Cl)cc1,47.5 µg/mL
7,Cc1nn(C)c(C)c1NS(=O)(=O)c1ccc(N2CCCC2=O)cc1,> 52.3 µg/mL
8,O=C(NCc1ccco1)c1ccc2c(c1)OCCO2,37.6 µg/mL
9,O=[N+]([O-])C1C(c2ccccc2)=NOC1c1ccccc1O (stereo not drawn),> 42.6 µg/mL
10,Cc1ccc(NC(=O)CCn2c(=S)oc3ccccc32)cc1F,< 0.4 µg/mL
11,Cc1[nH]c2ccccc2c1C(=O)C(=O)NCCc1c[nH]c2ccccc12,2.6 µg/mL
12,O=C(COC(=O)CNC(=O)c1ccccc1)NCc1ccc2c(c1)OCO2,> 55.6 µg/mL
13,COCCCNC(=O)COc1ccc2oc3c(c2c1)CCCC3,44.2 µg/mL
14,CC(=O)N1CCC(C(=O)Nc2cc(C)cc(C)c2)CC1,> 41.2 µg/mL
15,Cc1nc(Nc2ccc(O)cc2)c2c3c(sc2n1)CCCC3,12.9 µg/mL
16,CN(C(=O)CSc1nccc(=O)[nH]1)C1CCCCC1,> 42.2 µg/mL
17,Cc1ccc2c(c1)C(c1ccccc1)=NCC(=O)N2C,> 39.6 µg/mL
18,CC(C)CCOc1ccc(C(=O)C[N+]2(C)CCOCC2)cc1.[I-],38.4 µg/mL
19,Cc1[nH]c(=S)c(C#N)c(-c2ccccc2)c1C(=O)Nc1ccccc1,> 51.8 µg/mL
20,CCC(=O)c1ccc(OCC(=O)OCC(=O)Nc2ccc3c(c2)OCCO3)cc1,18.8 µg/mL

row,SMILES,solubility kinetic
1,CCOc1ccc(NCc2cc3cc(OC)ccc3[nH]c2=O)cc1,2.1 µg/mL
2,CNS(=O)(=O)c1ccc2c3c(cccc13)C(=O)N2,27.7 µg/mL
3,CN(C)C(=O)N1CCN(c2nc(-c3ccccc3)cs2)CC1,40.3 µg/mL
4,CCN1CCN(S(=O)(=O)c2ccc(Cl)c(C(=O)NCc3nc4ccccc4[nH]3)c2)CC1,18.8 µg/mL
5,Cc1ccc(NC(=O)COC(=O)c2ccc(NC(=O)CC#N)cc2)cc1S(=O)(=O)N1CCOCC1,23.6 µg/mL
6,O=C(Nc1cccnc1)c1ccc(Cl)c(Cl)c1,40 µg/mL
7,O=c1cc(C(F)(F)F)nc(-c2ccccc2OC(F)(F)F)[nH]1,> 48.6 µg/mL
8,Cc1ccc(/C=C/C(=O)OCC(=O)NC(=O)NCc2ccccc2)cc1,3.8 µg/mL
9,CC(=O)c1c(C)[nH]c(C(=O)NCc2cccc(Cl)c2)c1C,18.9 µg/mL
10,CN1CCCN(c2ccc([N+](=O)[O-])nc2)CC1,> 35.4 µg/mL
11,O=C(NCCNC(=O)c1ccco1)c1ccc(F)cc1,> 41.4 µg/mL
12,CCc1ccccc1NC(=O)C1CCCN(c2ncccn2)C1 (stereo not drawn),8.3 µg/mL
13,O=C(CCCc1ccccc1)NCc1ccccn1,29.2 µg/mL
14,C=CCn1c(O)c(/C=N/NC(=O)c2ccncc2)c(=O)[nH]c1=O,> 47.3 µg/mL
15,O=C(O)c1cc2c(cn1)[nH]c1ccccc12,> 31.8 µg/mL
16,CC(C)(C)NC(=S)NCC1CC1,> 27.9 µg/mL
17,CN(CC(=O)Nc1ccc(F)c(F)c1F)C(=O)c1ccc(=O)[nH]c1,> 50.9 µg/mL
18,CCC(=O)c1ccc(OC(C)C(=O)NC2(C#N)CCCCC2)cc1 (stereo not drawn),25 µg/mL
19,Cc1onc(-c2ccccc2Cl)c1C(=O)N1CCN(C=O)CC1,> 50.1 µg/mL
20,Oc1ccc(Cl)cc1CNc1cccc2cccnc12,0.5 µg/mL

row,SMILES,solubility kinetic
1,O=C(NC(=S)N1CCCC(O)C1)c1ccco1 (stereo not drawn),> 38.1 µg/mL
2,O=C(Nc1ccc2ccccc2n1)c1ccccc1,29.8 µg/mL
3,O=C(CCCc1c[nH]c2ccccc12)NCc1cccs1,41.1 µg/mL
4,COc1ccc(NS(=O)(=O)c2cc(NC(=O)[C@H](C)NC(N)=O)ccc2N2CCCC2)cc1,> 69.2 µg/mL
5,Cc1nc(SCC(=O)N2CCOCC2)c2c(=O)n(C)c(=O)n(CC(C)C)c2n1,47.8 µg/mL
6,CS(=O)(=O)N(CC(=O)O)c1ccc(C23CC4CC(CC(C4)C2)C3)cc1,49.5 µg/mL
7,COc1ccccc1C1CCN(Cc2ccc(Cl)c(Cl)c2)CC1,< 0.8 µg/mL
8,COc1cccc2cc(-c3ccnc(N)n3)oc12,2.6 µg/mL
9,COc1nc2c(c(-c3cc(Br)cs3)c1C#N)Cc1ccccc1-2,< 0.4 µg/mL
10,CN(C)S(=O)(=O)c1cccc(NC(=O)COc2ccc(S(=O)(=O)N3CCOCC3)cc2Cl)c1,5.4 µg/mL
11,CC(=O)c1c(N2CCOCC2)nc2ccc(Cl)cc2c1-c1ccccc1,1.8 µg/mL
12,CC(=O)c1cccc(NC(=O)NCc2ccc3c(c2)OCO3)c1,9.2 µg/mL
13,COC(=O)c1cn(C(=O)c2ccc(OC)c(OC)c2)c2ccccc12,1.2 µg/mL
14,COc1ccc(NC(=O)CCCc2nc3ccccc3c(=O)[nH]2)cc1Cl,14.5 µg/mL
15,COc1cccc(C(N)=O)c1OC(=O)Cc1ccccc1F,> 45.5 µg/mL
16,CN(C)c1cc(-c2ccc(C#N)cc2)oc(=O)c1Cl,2.7 µg/mL
17,CCCNC(=O)CNC(=S)N(Cc1ccccc1F)C1CCCCC1,42.3 µg/mL
18,CC1CCCCC1NC(=O)COC(=O)c1cccn1C (stereo not drawn),> 41.8 µg/mL
